Source: article PMC9123836 (Bioorganic & Medicinal Chemistry, 2022)

Legend:
α-glucosidase [1] = target: T1, α-glucosidase (Saccharomyces cerevisiae, UniProt P53341); assay: enzyme kinetic study; assay type: biochemical; conditions: Lineweaver-Burk plot
LO2 cells = assay: cytotoxicity against normal cells; assay type: cell-based, human; conditions: at the 100 µM level; MTT, 72 h
[2] = system: SARS-CoV-2 spike pseudovirus; assay: organism not typed; assay type: cell-based
α-glucosidase [3] = target: T1, α-glucosidase; assay: in vitro α-glucosidase inhibitory activity; assay type: biochemical; conditions: mean ± SD (n = 3); test concentration not given

T1 sequence (P53341 whole entry): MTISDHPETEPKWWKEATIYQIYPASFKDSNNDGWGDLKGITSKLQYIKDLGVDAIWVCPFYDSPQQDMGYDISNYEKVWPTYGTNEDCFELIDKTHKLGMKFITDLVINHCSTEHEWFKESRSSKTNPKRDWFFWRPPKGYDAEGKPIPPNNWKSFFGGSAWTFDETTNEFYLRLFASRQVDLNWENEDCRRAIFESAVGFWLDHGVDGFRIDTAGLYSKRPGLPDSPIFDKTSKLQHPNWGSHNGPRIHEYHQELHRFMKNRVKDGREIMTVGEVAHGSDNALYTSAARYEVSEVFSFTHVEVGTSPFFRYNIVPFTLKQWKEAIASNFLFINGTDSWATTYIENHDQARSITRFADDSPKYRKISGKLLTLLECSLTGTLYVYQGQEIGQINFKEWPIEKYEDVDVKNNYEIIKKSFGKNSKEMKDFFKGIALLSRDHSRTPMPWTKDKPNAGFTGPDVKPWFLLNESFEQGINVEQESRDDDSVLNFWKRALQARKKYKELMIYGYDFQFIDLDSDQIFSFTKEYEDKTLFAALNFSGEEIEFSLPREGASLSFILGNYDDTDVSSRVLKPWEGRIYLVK

C=CCc1cc(-c2cc(CC=C)c3oc(SCc4nnc(-c5cccc(C)c5)o4)nc3c2)c2oc(SCc3nnc(-c4cccc(C)c4)o3)nc2c1 [Compound 7l]
inhibition mode towards α-glucosidase (α-glucosidase [1]): noncompetitive α-glucosidase inhibitor
survival rates of LO2 cells (LO2 cells): above 80%

C=CCc1cc(CSc2nnc(-c3ccccc3)o2)c(O)c(-c2ccc(O)c(CC=C)c2)c1 [Compound 9a]
inhibition of SARS-CoV-2 pseudovirus entry ([2]; at 100 μM): almost completely inhibited
survival rates of LO2 cells (LO2 cells): above 80%

C=CCc1cc(CSc2nnc(-c3cccnc3)o2)c(O)c(-c2ccc(O)c(CC=C)c2)c1 [Compound 9r]
survival rates of LO2 cells (LO2 cells): above 80%

Cc1cc(-c2ccc(/N=N/c3ccc4c(S(=O)(=O)O)cc(S(=O)(=O)O)c(N)c4c3O)c(C)c2)ccc1/N=N/c1ccc2c(S(=O)(=O)O)cc(S(=O)(=O)O)c(N)c2c1O [Evans blue, reference compound]
IC50 ([2]; HEK293, read-out: IC50 (µM) against pseudovirus entry): 22 ± 1.98 µM

C[C@H]1O[C@H](O[C@H]2[C@H](O)[C@@H](O)[C@@H](O[C@H]3[C@H](O)[C@@H](O)C(O)O[C@@H]3CO)O[C@@H]2CO)[C@H](O)[C@@H](O)[C@@H]1N[C@H]1C=C(CO)[C@@H](O)[C@H](O)[C@H]1O (stereo partly shown) [acarbose]
Inhibition rate (%) (α-glucosidase [3]): 96.4 ± 0.5%
